According to US20250186396A1, “COMPOSITIONS AND METHODS FOR THE TREATMENT OF GLIOBLASTOMA WITH A DUAL TARGETING ANTI-TUMOR COMPOSITION” (Northwestern University, priority 2023, published 2025):

System: OLFML3
Test: RT-qPCR of OLFML3 in PTEN-KO SF763 cells
Format: cell-based, human
Conditions: shC PTEN-KO SF763 cells; SC75741 5 μM; 8 hours
Experimental: Cell Culture. The GBM cell lines U87, U251, SF763, LN229, and CT2A, as well as 293T cells were cultured in Dulbecco's Modified Eagle's Medium (DMEM; Gibco, #11995-065). The mouse glioma cell line GL261 cells and SIM-A9 microglia were cultured in Dulbecco's Modified Eagle Medium-Ham's F12 medium (Gibco, #10565-018). HMC3 microglia were cultured in Eagle's Minimum Essential Medium (ATCC, #30-2003). THP-1 macrophages were cultured in RPMI 1640 medium (Gibco, #11875093). All cell lines were cultured in the indicated medium containing 10% fetal bovine serum (FBS; Fisher Scientific, #16140071) and 1:100 antibiotic-antimycotic (Gibco, #15140-122), and were purchased from the American Type Culture Collection (ATCC). Human GSCs (GSC23 and GSC7-10) and mouse GBM tumor-derived 005 GSCs and QPP7 GSCs were cultured in neural stem cell (NSC) proliferation media (Millipore, #SCM005) containing 20 ng/mL epidermal growth factor (EGF; PeproTech, #AF-100-15) and basic fibroblast growth factor (bFGF; PeproTech, #100-18B). Human GSCs were gifted by Dr. Frederick F. Lang from the Brain Tumor Center (The University of Texas MD Anderson Cancer Center). […]
Quantitative real-time PCR (RT-qPCR). […] RNA was quantified by NanoDrop spectrophotometers and then the All-In-One 5× RT MasterMix (Applied Biological Materials, #G592) was used to reverse-transcribe RNA into cDNA in T100 Thermal Cycler (Bio-Rad). […]

Compound: O=C(c1ccccc1)c1ccc2nc(NC(=O)c3csc(C4CCN(c5ncnc6ccsc56)CC4)n3)[nH]c2c1 [SC75741]
- mRNA expression of OLFML3: upregulated
